In patent US5086067A, “LTB4 synthesis inhibitors” (G. D. Searle & Co., priority 1989, dated 1992):

Assays:
[1] = biological target: T1, Human synovial fluid phospholipase A2 (HSF-PLA2) (Homo sapiens, UniProt P14555); experiment: Human synovial fluid phospholipase A2 (HSF-PLA2) assay; format: biochemical; settings: [14C]-oleate-labeled E. coli substrate, pH 7.0, 5 min pre-incubation, 37° C., 30 minutes
T1 construct: Human synovial fluid phospholipase A2 was purified approximately 5000 fold; from tissue; host or cells: human synovial fluid
T1 sequence (P14555 21-144): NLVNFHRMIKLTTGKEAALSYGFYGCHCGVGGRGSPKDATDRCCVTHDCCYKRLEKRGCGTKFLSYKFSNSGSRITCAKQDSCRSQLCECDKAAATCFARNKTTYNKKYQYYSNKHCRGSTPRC
Procedure: Human synovial fluid phospholipase A2 was purified approximately 5000 fold following the procedures of Franson et al., Lung 160, 275-284 (1982) and Fawzy et al., Bio Phys. J. 49, 533a (1986). Following purification the enzyme activity was measured by established methodology using [^14 C]-oleate-labeled, autoclaved E. coli as the substrate as also shown in the above noted references. The assay was performed in a final volume of […] containing 50 mM HEPES (pH 7.0), 150 mM NaCl, 5mM CaCl2, 7 mM [14C]-oleate-labeled E. coli phospholipid and with or without the compound from one of the examples herein undergoing an assay. The compound or control vehicle was pre-incubated with the PLA2 for 5 minutes followed by addition of the E. coli substrate to initiate the reaction. The reaction was maintained at 37° C. for 30 minutes and then terminated by the addition of 2 ml tetrahydrofuran (THF). The reaction product, [14C] -oleic acid, was extracted using a 1 ml Bond Elut NH2 Solid phase extraction column. The IC50 value for the compound (mean +/- S.E.) is given in the following Table and represents the concentration of the compound required to inhibit 50% of the PLA2 activity.

[2] = system: LTB4 biosynthesis in HL-60 cells; experiment: Assay for LTB4 production by HL-60 cells (LTB4 biosynthesis inhibition); format: cell-based; settings: Homo sapiens; differentiated HL-60 cells, 10 min pre-incubation at 37° C., 5×10^-6 M A23187 for 5 minutes, radioimmunoassay; read-out: LTB4 Biosynthesis inhibition (HL60 cells) IC50
Procedure: HL-60 cells were induced to differentiate into granulocytes by a 4 day incubation with 0.8% (v/v) N,N-dimethyl formamide as disclosed in Fontana et al., Proc. Natl. Acad. Sci. 78 (6):3863-3866 (1981); Agins et al., Biochem. Biophys. Res. Comm. 126, 143-149 (1985); and Bonser et al., Biochemistry 20: 5297-5301 (1981). Prior to performing the assay, differentiated HL-60 cells were washed once with Hanks. balanced salt solution containing 0.35 mg/ml sodium bicarbonate and 10 mM HEPES pH 7.35 (HBSS). HL-60 cells (3×10^6 cells/ml) were pre-incubated with the compound tested or a control vehicle at 37° C. for 10 minutes, followed by 5 minute incubation with 5×10^-6 M calcium ionophore A23187 in a final volume of 1.0 ml. After incubation, the cells were pelleted by centrifugation and the LTB4 and PGE2 in the supernatant were quantified by radioimmunoassay. IC50 values (means +/- S.E.) for compounds herein that were tested are shown in the following Table and represent the concentrations of the compound required to inhibit 50% of LTB4 or PGE2 production by HL-60 cells stimulated with the calcium ionophore A23187.

Structure (SMILES) | IC50 [1] [µM] | IC50 [2] [µM]
CCCCCCCCCCCCCC#CC(=O)c1cccc(C(=O)O)n1 [Example 13] | 2.5 | 0.8
CCCCCCCCCCCCCC#CC(O)c1cccc(-c2nn[nH]n2)c1 (stereo not drawn) [Example 29] | 42 | 
CCCCCCCCCCCCCC#CC(O)c1ccc(C(=O)O)s1 (stereo not drawn) [Example 24] | 18 | 0.9
CCCCCC#CCCCCCCC#CC(O)c1cccc(C(=O)O)c1 (stereo not drawn) [Example 18] | 28 | 
CCCCCCCCCCCCCC#CC(O)c1ccc(O)c(C(=O)O)c1 (stereo not drawn) [Example 16] | 11 | 8
CCCCCCCCCCCCCC#CC(O)c1ccc(C(=O)O)o1 (stereo not drawn) [Example 11] | 28 | 2.4
CCCCCCCCCCCCCC#CC(=O)c1cccc(C(=O)NS(=O)(=O)c2ccccc2)c1 [Example 27] | 14 | 
CCCCCCCCCCCCCC#CC(=O)c1cccc(-c2nn[nH]n2)c1 [Example 30] | 11 | 0.9

Next, values leading:

IC50 [1] [µM] | IC50 [2] [µM] | Structure (SMILES)
11 | 0.8 | CCCCCCCCCCCCCC#CC(=O)c1cccc(C(=O)O)c1 [Example 4]
33 | 0.4 | CCCCCCCCCCCCCC#CC(=O)c1ccc(O)c(C(=O)O)c1 [Example 17]
34 | 0.5 | CCCCCCCCCCCCCC#CC(=O)c1ccc(C(=O)O)o1 [Example 12]
15 | 0.4 | CCCCCCCCCCCCCC#CC(=O)c1ccc(C(=O)O)s1 [Example 25]
13 |  | CCCCCCCCCCCCCC#CC(=O)c1ccccc1C(=O)O [Example 6]
14 | 0.2 | CCCCCCCCCCCCC#CC(=O)c1ccc(C(=O)O)cc1 [Example 3]
